Assay results taken from PubChem BioAssay AID248 (DTP/NCI, 2004).
Where “and” joins values, the source holds several entries; their conditions need not be identical. Identical values can stand only once. Toxic doses and inconclusive results are not listed. Rule as the data show it: active = T/C of 150% or more; inactive = T/C below 125%.

Tested on: L1210 leukemia ip in BDF1 mice, survival T/C
Test: NCI In Vivo Anticancer Drug Screen. Data for tumor model L1210 Leukemia (intraperitoneal) in B6D2F1 (BDF1) mice
Conditions: endpoint: mean survival time, higher = longer survival
In short: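 Mice bearing the transplanted tumor received compound or vehicle. Survival of the treated group was divided by that of the vehicle-treated control group to give the ratio.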

[1] = dose: 100.0 mg/kg/injection, schedule: Q01DX009 (ip), vehicle: saline with Tween-80
[2] = dose: 200.0 mg/kg/injection, schedule: Q01DX009 (ip), vehicle: saline with Tween-80
[3] = dose: 50.0 mg/kg/injection, schedule: Q01DX001 (ip), vehicle: carboxymethylcellulose (CMC)
[4] = dose: 100.0 mg/kg/injection, schedule: Q01DX001 (ip), vehicle: carboxymethylcellulose (CMC)
[5] = dose: 200.0 mg/kg/injection, schedule: Q01DX001 (ip), vehicle: carboxymethylcellulose (CMC)
[6] = dose: 400.0 mg/kg/injection, schedule: Q01DX001 (ip), vehicle: carboxymethylcellulose (CMC)
[7] = dose: 100.0 mg/kg/injection, schedule: Q04DX003 (ip), vehicle: Klucel (hydroxypropylcellulose) (HPC)
[8] = dose: 200.0 mg/kg/injection, schedule: Q04DX003 (ip), vehicle: Klucel (hydroxypropylcellulose) (HPC)
[9] = dose: 400.0 mg/kg/injection, schedule: Q04DX003 (ip), vehicle: Klucel (hydroxypropylcellulose) (HPC)
[10] = dose: 100.0 mg/kg/injection, schedule: Q04DX003 (ip), vehicle: saline with Tween-80
[11] = dose: 200.0 mg/kg/injection, schedule: Q04DX003 (ip), vehicle: saline with Tween-80
[12] = dose: 400.0 mg/kg/injection, schedule: Q04DX003 (ip), vehicle: saline with Tween-80
[13] = dose: 100.0 mg/kg/injection, schedule: Q01DX009 (ip), vehicle: Klucel (hydroxypropylcellulose) (HPC)
[14] = dose: 200.0 mg/kg/injection, schedule: Q01DX009 (ip), vehicle: Klucel (hydroxypropylcellulose) (HPC)
[15] = dose: 400.0 mg/kg/injection, schedule: Q01DX009 (ip), vehicle: Klucel (hydroxypropylcellulose) (HPC)
[16] = dose: 50.0 mg/kg/injection, schedule: Q01DX009 (ip), vehicle: saline with Tween-80
[17] = dose: 100.0 mg/kg/injection, schedule: Q01DX001 (ip), vehicle: saline with Tween-80
[18] = dose: 200.0 mg/kg/injection, schedule: Q01DX001 (ip), vehicle: saline with Tween-80
[19] = dose: 400.0 mg/kg/injection, schedule: Q01DX001 (ip), vehicle: saline with Tween-80

Measured: T/C

CCOC(C)C1C2CCCCC21 (centres undefined)
inactive: [1] 101 % of control | [2] 92 % of control

CC1(C)C2CCC(O)(C(=O)O)C1C2 (centres undefined)
inactive: [3] 106 % of control | [4] 91 % of control | [5] 91 % of control | [6] 100 % of control

NC(=S)N/N=C/c1ccco1
inactive: dose: 25.0 mg/kg/injection, schedule: Q04DX003 (ip), vehicle: saline 105 % of control | dose: 50.0 mg/kg/injection, schedule: Q04DX003 (ip), vehicle: saline 109 % of control | dose: 100.0 mg/kg/injection, schedule: Q01DX001 (ip), vehicle: saline 101 % of control | [7] 93 % of control | dose: 100.0 mg/kg/injection, schedule: Q04DX003 (ip), vehicle: saline 94 % of control and 100 % of control | dose: 200.0 mg/kg/injection, schedule: Q01DX001 (ip), vehicle: saline 104 % of control | [8] 96 % of control | [9] 103 % of control

C[Si](C)(C)Cc1ccc(F)cc1
inactive: dose: 25.6 mg/kg/injection, schedule: Q04DX002 (ip), vehicle: saline with Tween-80 90 % of control | dose: 64.0 mg/kg/injection, schedule: Q04DX002 (ip), vehicle: saline with Tween-80 93 % of control | [10] 93 % of control | dose: 160.0 mg/kg/injection, schedule: Q04DX002 (ip), vehicle: saline with Tween-80 97 % of control | [11] 97 % of control | dose: 400.0 mg/kg/injection, schedule: Q04DX002 (ip), vehicle: saline with Tween-80 97 % of control | [12] 93 % of control

CC(=O)Nc1ccc(Cl)cc1C(=O)O
inactive: [13] 97 % of control | [7] 97 % of control | [14] 90 % of control | [8] 94 % of control | [15] 93 % of control | [9] 102 % of control

COC(=O)/C=C/NC(=O)c1ccccc1C(=O)OC
inactive: [13] 98 % of control | [7] 94 % of control | [14] 96 % of control | [8] 103 % of control | [15] 109 % of control | [9] 100 % of control

O=C(NC(=O)c1ccc(Cl)cc1)Nc1ccc(Cl)cc1C(F)(F)F
inactive: [16] 98 % of control | [1] 103 % of control | [2] 98 % of control

O=C1CCCCCC/C(=N/O)CCCO1
inactive: [17] 94 % of control | [18] 97 % of control | [19] 97 % of control

O=[N+]([O-])c1ccc(S(=O)(=O)C2CCCCC2Cl)c([N+](=O)[O-])c1 (centres undefined)
inactive: [3] 95 % of control | [4] 111 % of control | [5] 106 % of control | [6] 101 % of control

CCOc1ccccc1NC(=S)Nc1ccc([N+](=O)[O-])cc1
inactive: [16] 92 % of control | [1] 92 % of control | [2] 95 % of control

Nc1ccc(Cl)nn1
inactive: dose: 25.0 mg/kg/injection, schedule: Q04DX002 (ip), vehicle: Klucel (hydroxypropylcellulose) (HPC) 97 % of control | dose: 50.0 mg/kg/injection, schedule: Q04DX002 (ip), vehicle: Klucel (hydroxypropylcellulose) (HPC) 97 % of control | dose: 100.0 mg/kg/injection, schedule: Q04DX002 (ip), vehicle: Klucel (hydroxypropylcellulose) (HPC) 100 % of control

Cc1ccc(S(=O)(=O)c2ccc(C)cc2)cc1
inactive: [3] 96 % of control | [4] 111 % of control | [5] 100 % of control | [6] 105 % of control

CN(Cc1cnc2nc(N)c([N+](=O)[O-])c(N)c2n1)c1ccc(C(=O)NC(CCC(=O)O)C(=O)O)cc1 (centres undefined)
inactive: dose: 100.0 mg/kg/injection, schedule: Q04DX002 (ip), vehicle: sodium bicarbonate 89 % of control | dose: 200.0 mg/kg/injection, schedule: Q04DX002 (ip), vehicle: sodium bicarbonate 99 % of control

Cc1cc(=O)[nH]c2ccc(Cc3ccc(N)cc3)cc12
inactive: [4] 95 % of control | [5] 96 % of control | [6] 98 % of control

CCCC[P+](CCCC)(CCCC)C(C)C
inactive: dose: 12.0 mg/kg/injection, schedule: Q01DX009 (ip), vehicle: saline with Tween-80 97 % of control | dose: 25.0 mg/kg/injection, schedule: Q01DX009 (ip), vehicle: saline with Tween-80 97 % of control | dose: 25.0 mg/kg/injection, schedule: Q04DX003 (ip), vehicle: saline with Tween-80 101 % of control | dose: 50.0 mg/kg/injection, schedule: Q04DX003 (ip), vehicle: saline with Tween-80 99 % of control

CC(=O)[O][Hg][CH]1CCCCC1O (centres undefined)
inactive: dose: 5.0 mg/kg/injection, schedule: Q01DX001 (ip), vehicle: saline 103 % of control | dose: 10.0 mg/kg/injection, schedule: Q01DX001 (ip), vehicle: saline 95 % of control | dose: 12.3 mg/kg/injection, schedule: Q01DX009 (ip), vehicle: saline with Tween-80 106 % of control | dose: 20.0 mg/kg/injection, schedule: Q01DX001 (ip), vehicle: saline 97 % of control | dose: 40.0 mg/kg/injection, schedule: Q01DX001 (ip), vehicle: saline 95 % of control | dose: 80.0 mg/kg/injection, schedule: Q01DX001 (ip), vehicle: saline 102 % of control

CCOC(=O)N/N=C/c1ccccc1O
inactive: dose: 75.0 mg/kg/injection, schedule: Q01DX001 (ip), vehicle: carboxymethylcellulose (CMC) 103 % of control | dose: 150.0 mg/kg/injection, schedule: Q01DX001 (ip), vehicle: carboxymethylcellulose (CMC) 104 % of control | dose: 300.0 mg/kg/injection, schedule: Q01DX001 (ip), vehicle: carboxymethylcellulose (CMC) 97 % of control

NC(=O)NC(=O)C1C2C=CC(C2)C1C(=O)NC(N)=O (centres undefined)
inactive: [10] 100 % of control | [11] 100 % of control | [12] 91 % of control

CCSC1C(OC(C)=O)C(C(CI)OC(C)=O)OC1n1cc(C)c(=O)[nH]c1=O (centres undefined)
inactive: dose: 100.0 mg/kg/injection, schedule: Q01DX005 (ip), vehicle: saline 93 % of control | dose: 200.0 mg/kg/injection, schedule: Q01DX005 (ip), vehicle: saline 98 % of control

O=C(O)C1(Nc2ccc(-c3ccc(NC4(C(=O)O)CCCC4)cc3)cc2)CCCC1
inactive: [3] 90 % of control | [4] 90 % of control | [5] 88 % of control | [6] 88 % of control

O=[N+]([O-])c1ccc(OCc2ccc(COc3ccc(S(=O)(=O)F)cc3)cc2)c(Cl)c1
inactive: [17] 90 % of control | [18] 102 % of control | [19] 96 % of control

CC(C)c1ccccc1OS(=O)(=O)c1ccc([N+](=O)[O-])cc1
inactive: [1] 103 % of control | [7] 103 % of control | [2] 92 % of control | [8] 105 % of control | dose: 400.0 mg/kg/injection, schedule: Q01DX009 (ip), vehicle: saline with Tween-80 90 % of control | [9] 92 % of control

CCOP(=O)(CI)Oc1ccc([N+](=O)[O-])cc1 (centres undefined)
inactive: dose: 0.5 mg/kg/injection, schedule: Q01DX001 (ip), vehicle: saline 100 % of control | dose: 1.0 mg/kg/injection, schedule: Q01DX001 (ip), vehicle: saline 102 % of control | dose: 2.0 mg/kg/injection, schedule: Q01DX001 (ip), vehicle: saline 100 % of control

CCOC(=O)C1CC(=O)c2cc(OC)c(OC)cc2C1c1ccc(OC)c(OC)c1 (centres undefined)
inactive: [4] 98 % of control | [5] 89 % of control
